In patent publication US8143282B2, “Heterocyclic compounds” (S*BIO Pte Ltd., priority 2005, dated 2012):

Key:
[1] = target: T1, HDAC1 enzyme (Homo sapiens, UniProt Q13547); test: In vitro HDAC assay for determination of IC50 values (BIOMOL fluorescent-based HDAC activity assay); type: biochemical
T1 construct: Amplification of human HDAC1 coding region from this cDNA library was cloned separately into the baculovirus expression pDEST20 vector; made in house; host or cells: SF9 insect cells, pDEST20-HDAC1 baculovirus
T1 sequence (Q13547 whole entry): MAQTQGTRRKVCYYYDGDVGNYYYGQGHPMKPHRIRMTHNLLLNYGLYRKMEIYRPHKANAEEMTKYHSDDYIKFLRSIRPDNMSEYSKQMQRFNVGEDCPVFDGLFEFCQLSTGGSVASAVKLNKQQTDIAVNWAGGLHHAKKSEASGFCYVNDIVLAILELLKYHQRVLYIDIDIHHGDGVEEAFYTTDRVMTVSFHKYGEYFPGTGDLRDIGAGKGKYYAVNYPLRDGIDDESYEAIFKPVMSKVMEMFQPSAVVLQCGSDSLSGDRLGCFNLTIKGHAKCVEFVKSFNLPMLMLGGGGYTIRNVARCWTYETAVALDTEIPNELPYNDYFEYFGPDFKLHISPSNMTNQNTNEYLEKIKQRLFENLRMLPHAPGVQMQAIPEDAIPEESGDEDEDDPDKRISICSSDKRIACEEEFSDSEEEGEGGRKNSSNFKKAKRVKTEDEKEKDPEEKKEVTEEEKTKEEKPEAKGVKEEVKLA
Procedure, shortened: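 Recombinant GST-HDAC1, cloned from SW620 cDNA and expressed in Sf9 cells, tested in a fluorogenic Fluor de Lys deacetylase assay. Developer was added for 10 min and fluorescence read at 360/460 nm. IC50 came from concentration series.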

[2] = tested on: Colo205 cells; test: Cell-based proliferation assay for GI50 (CyQUANT), Colo205; details: Homo sapiens, COLO 205, 96 h treatment, read-out: Cellular or Growth Inhibition Activity in Colo205 cells, GI50
Procedure, shortened: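 Cells were seeded at 1000 (PC3), 5000 (Colo205), 6000 (HCT116) or 4000 (HEP3B) per well and left 24 h at 37° C. Compound treatment lasted 96 h. Growth was read by CyQUANT, and GI50 (50% growth inhibition) came from dose-response curves.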

[3] = tested on: HCT116; test: Cell-based proliferation assay for GI50 (CyQUANT), HCT116; details: Homo sapiens, HCT-116; HCT116, 96 h treatment; read-out: Cellular or Growth Inhibition Activity, GI50, HCT116
Experimental: (§1) Human colon cancer cell lines (Colo205, HCT116), Ovarian cancer cell line (A2780), Hepatoma cell line (HEP3B), Prostate cancer cell line (PC3) were obtained from ATCC or ECACC. Colo205 cells were cultivated in RPMI 1640 containing 2 mM L-Glutamine, 5% FBS, 1.0 mM Na Pyruvate, 1 U/ml of penicillin and 1 μg of streptomycin. HCT116 cells were cultivated in McCoy's containing RPMI 1640 containing 2 mM L-Glutamine, 5% FBS, 1 U/ml of penicillin and 1 μg of streptomycin. A2780 cells were cultivated in RPMI 1640 containing 2 mM L-Glutamine, 5% FBS, 1 U/ml of penicillin and 1 μg of streptomycin. HEP3B cells were cultivated in EMEM containing 2 mM L-glutamine, 5% FBS, 1% non essential amino acid, 1 mM Na Pyruvate, 1 U/ml of penicillin and 1 μg of streptomycin. PC3 cells were cultivated in F12K, 2 mM L-glutamine, 5% FBS, 1 U/ml of penicillin and 1 μg of streptomycin. PC3, Colo205, and HCT116 cells were seeded in 96-wells plate at 1000, 5000 and 6000 cells per well respectively. A2780 and HEP3B cells were seeded in 96-wells plate at 4000 cells per well respectively. The plates were incubated at 37° C., 5% CO2, for 24 h. Cells were treated with compounds at various concentrations for 96 h. Cell growth was then monitored using CyQUANT® cell proliferation assay (Invitrogen Pte Ltd). Dose response curves were plotted to determine GI50 values for the compounds using XL-fit (ID Business Solution, Emeryville, Calif.). GI50 is defined as the concentration of compound required for 50% inhibition of cell growth.

[4] = tested on: A2780; test: Cell-based proliferation assay for GI50 (CyQUANT), A2780; details: Homo sapiens; A2780, 96 h treatment; read-out: Cellular or Growth Inhibition Activity, GI50, A2780
Experimental: as §1

[5] = tested on: PC3; test: Cell-based proliferation assay for GI50 (CyQUANT), PC3; details: Homo sapiens, PC-3; PC3, 96 h treatment; read-out: Cellular or Growth Inhibition Activity, GI50, PC3
Experimental: as §1

[6] = tested on: HEP3B; test: Cell-based proliferation assay for GI50 (CyQUANT), HEP3B; details: Homo sapiens, 96 h treatment, read-out: Cellular or Growth Inhibition Activity, GI50, HEP3B
Experimental: as §1

[7] = Measurement of microsomal stability; type: in vitro ADME; details: pooled human liver microsomes, pH 7.4; human liver microsome, 5 μM test compound, 1.0 mg/ml microsomal protein
Experimental: Metabolic stability measurements in the in vitro using liver microsomes aids in the prediction of the in vivo hepatic clearance and the compound stability towards phase I biotransformation reactions mediated by P450 isozymes.
Pooled human liver microsome (HLM was purchased from BD Gentest (BD BioSciences). The incubations consisted of test compound (5 μM) or control compound (Verapamil), NADPH-generating system solution A (25 mM NADP^+, 66 mM glucose-6-phosphate, 66 mM MgCl2 in H2O), NADPH-generating system solution B (40 U/ml glucose-6-phosphate dehydrogenase in 5 mM sodium citrate) and 1.0 mg/ml microsomal protein, respectively, in 100 mM potassium phosphate buffer (pH 7.4). Samples were incubated for 0, 5, 15, 30, 45, 60 min. Reaction was terminated with ice-cold 80% acetonitrile and 20% DMSO. Samples were subsequently centrifuged at 4° C. for 15 min at 2,000 rpm. 100 μL of the supernatant was transferred to the LC-MS Plate for analysis. Before quantitative analysis, the compound was tuned in LC/MS machine to get the optimized MS condition. Liquid chromatography was performed on a Luna C18 column (Phenomenex U.S.A, Torrance, Calif.) (2×50 mm, 5 μM). % of the compound remaining (by area) at each time point is calculated with respect to time 0 min. Plot % remaining against time (min) to obtain the curve and use the Prism software to obtain the t1/2.

[8] = In vivo pharmacokinetic (PK) studies; details: mouse, plasma, po; mice, hydrochloric acid salt form (2HCl), 50 mg/kg
Experimental: Compound was dissolved in appropriate solution (saline or DMA and Cremaphor in saline) at 1 mg/ml for intravenous (IV) administration, or in 0.5% methyl cellulose, 0.1% Tween 80 in water at 5 mg/ml for oral administration. Mice were randomized according to body weight, grouped three per time point. Mice were administered single IV dose (10 mg/kg) via tail vein, or single oral dose (50 mg/kg) via gavage. At pre-defined time points (predose, 5 or 10, 30 min, 1, 2, 4, 8, and 24 h), one group of mice was sacrificed by overdose CO2 and blood samples were collected by cardiac puncture. The blood samples were centrifuged immediately for 10 min at 3000 rpm to separate plasma, and plasma was kept frozen at −80° C. until analysis by LC/MS/MS. Before sample analysis, the method was developed for LC/MS/MS assay. The method was validated for signal-response of the calibration standards, auto-sampler stability for ˜15 hours intra-day and inter-day calibration curve using eight calibration standards excluding the blank plasma. QC samples at three different concentrations in triplicates were prepared to determine the accuracy and precision. The extracted QC samples were compared to unextracted samples to determine the extraction efficiency of the analyte. LLOQ was determined by using triplicate samples of 1 ng/mL and 2 ng/mL to obtain accuracy and precision at the low end. Samples were analysed using the validated method. Data was analyzed by the non-compartmental model using WinNolin 4.0 software (Pharsight, Mountain View, Calif., USA). The mean values for the plasma compound concentration-time profiles were used in mouse PK study.
The PK parameter AUC0-last providing the information on the overall exposure of the drug in vivo is one of the key PK/PD parameters that helps in predicting the efficacy of an anti-cancer compound. The higher the AUC value, the better will be the in vivo efficacy of the compound at similar in vitro potency.

Structure (SMILES)	IC50 [1]	GI50 [2]	GI50 [3]	GI50 [4]	GI50 [5]	GI50 [6]	half-life at 5 μM [7]	AUC(0-t) [8]
CN(C)CC(C)(C)Cn1c(CC(C)(C)C)nc2cc(/C=C/C(=O)NO)ccc21 [Compound 1, 3-[1-(3-Dimethylamino-2,2-dimethyl-propyl)-2-(2,2-dimethyl-propyl)-1H-benzoimidazol-5-yl]-N-hydroxy-acrylamide]	42 nM	500 nM	500 to 1000 nM	< 500 nM	< 500 nM	500 to 1000 nM	> 30 min	1870 ng·h/mL
CCCCc1nc2cc(/C=C/C(=O)NO)ccc2n1CCN(CC)CC [Compound 8, 3-[2-Butyl-1-(2-diethylamino-ethyl)-1H-benzoimidazol-5-yl]-N-hydroxy-acrylamide]	52 nM	560 nM	500 to 1000 nM	500 to 1000 nM	< 500 nM	1000 to 5000 nM	> 30 min	1840 ng·h/mL
